Assay results: PMC4497601 (Angewandte Chemie (International Ed. in English), 2014)
Entries after “also recorded” stand apart in the source; their conditions may differ. One block for each compound: values may come before it.

Legend:
Hsp90 [1] = conditions: read-out: KD ITC; cited from earlier work
Hsp90 ATP binding site = Hsp90 ATP binding site (Homo sapiens, UniProt P07900); experiment: LLS screening in competition mode; conditions: Δ=2.5 s; for binding to Hsp90 in LLS competition screening of mixtures: 500 μM spy ligand II, 2.5 μM Hsp90, 600 μM of each ligand
Hsp90 [2] = conditions: cited from earlier work
[3] = target: N-terminal ATPase domain of heat shock protein 90 (Hsp90) (Homo sapiens, UniProt P07900); experiment: LLS NMR direct titration of ligand against Hsp90; type: binding

SMILES: Nc1ncccn1 [Ligand III, 2-aminopyrimidine]
Kd (Hsp90 [1]): > 1000 µM

SMILES: CC(C)c1cc(C(=O)N2Cc3ccc(CN4CCN(C)CC4)cc3C2)c(O)cc1O [AT13387]
LLS signal of spy ligand II on addition of competitor (Hsp90 ATP binding site; 500 μM ligand II, 10 μM Hsp90, 10 μM competitor): almost completely restored; also recorded: partly restored

binding to Hsp90 in LLS competition screening of mixtures (Hsp90 ATP binding site): nonbinding
SMILES: N[C@@H](Cc1ccc(O)cc1)C(=O)O [tyrosine]

binding to Hsp90 in LLS competition screening of mixtures (Hsp90 ATP binding site): weakly binding
SMILES: Cc1cnc(N)c(Br)c1 [Ligand V, 3-bromo-5-methylpyridin-2-ylamine]
binding to Hsp90 identified by fragment screening (Hsp90 [2]): weak ADP-competitive binders

binding to Hsp90 in LLS competition screening of mixtures (Hsp90 ATP binding site): nonbinding
SMILES: N=C(N)c1ccc(C(F)(F)F)cc1 [4-trifluoromethylbenzamidine]

binding to Hsp90 in LLS competition screening of mixtures (Hsp90 ATP binding site): nonbinding
SMILES: NCc1ccc(F)c(F)c1 [3,4-difluorobenzylamine]

Kd [3]: 15 ± 10 µM | RLLS bound ([3]; bound ligand, fitted from direct titration with 10 μM Hsp90): 77 ± 6 s⁻¹ | RLLS free ([3]; free ligand): 731±7 ms^−1
SMILES: Nc1ncnc2c1ncn2[C@@H]1O[C@H](COP(=O)(O)OP(=O)(O)O)[C@@H](O)[C@H]1O [Ligand I, Adenosine diphosphate]
Kd (Hsp90 [1]): 10 µM
